Reference: patent US7964624B1, “Inhibitors of serine proteases” (priority 2005, dated 2011)

Target: T1, HCV NS3 protease domain (Hepatitis C virus genotype 1b, UniProt Q9WMX2)
T1 construct: The first 181 amino acids of NS3 (residues 1027-1207 of the viral polyprotein); hexa-histidine (C); made in house; host or cells: E. coli BL21/DE3 pLysS
Assay: biochemical
Conditions: Enzyme Assay 1 (HCV NS3 Protease Domain Peptide Cleavage Assay) activity, apparent Ki class

T1 sequence (Q9WMX2 1027-1207, other chains not shown): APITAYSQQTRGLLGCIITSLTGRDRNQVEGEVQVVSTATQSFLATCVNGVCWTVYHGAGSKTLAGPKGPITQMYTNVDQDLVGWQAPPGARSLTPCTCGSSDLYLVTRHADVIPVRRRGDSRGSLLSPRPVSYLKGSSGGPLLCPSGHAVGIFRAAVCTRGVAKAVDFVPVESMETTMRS

Compound	Ki [µM]
CCC[C@H](NC(=O)[C@@H]1C[C@]2(CC(c3cccc(Cl)c3)=NO2)CN1C(=O)c1cc2cc(OC)c(OC)cc2[nH]1)C(=O)C(=O)NC1CC1 [Compound 157]	> 0.5
CCC[C@H](NC(=O)[C@@H]1C[C@]2(CC(c3cccc(Cl)c3)=NO2)CN1C(=O)[C@@H](NC(=O)OCc1ccccc1)C(C)(C)C)C(=O)C(=O)NC1CC1 [Compound 526]	0.1 to 0.5
CCC[C@H](NC(=O)[C@@H]1C[C@]2(CC(c3ccc(F)c(C(F)(F)F)c3)=NO2)CN1C(=O)[C@@H](NC(=O)O[C@H]1CCOC1)C(C)(C)C)C(=O)C(=O)NC1CC1 [Compound 545]	0.1 to 0.5
CCC[C@H](NC(=O)[C@@H]1C[C@]2(CC(c3cccc(Cl)c3)=NO2)CN1C(=O)[C@@H](NC(=O)CC(C)(O)C(F)(F)F)C(C)(C)C)C(=O)C(=O)NC1CC1 (stereo partly drawn) [Compound 475]	0.1 to 0.5
CCC[C@H](NC(=O)[C@@H]1C[C@]2(CC(c3cc(C)c(OC)c(C)c3)=NO2)CN1C(=O)[C@@H](NC(=O)CC1CCOCC1)C(C)(C)C)C(=O)C(=O)NC1CC1 [Compound 572]	0.1 to 0.5
CCC[C@H](NC(=O)[C@@H]1C[C@@]2(CC(c3ccccc3)=NO2)CN1C(=O)[C@@H](NC(=O)[C@@H](NC(=O)c1cnccn1)C1CCCCC1)C(C)(C)C)C(=O)C(=O)NC1CC1 [Compound 428]	0.1 to 0.5
CCC[C@H](NC(=O)[C@@H]1C[C@]2(CC(c3ccc(C)c(F)c3)=NO2)CN1C(=O)O[C@H]1CCOC1)C(=O)C(=O)NC1CC1 [Compound 11]	> 0.5
CCC[C@H](NC(=O)[C@@H]1C[C@]2(CC(c3cccc(Cl)c3)=NO2)CN1C(=O)[C@@H](NC(=O)C1CC(=O)N(Cc2cccs2)C1)C(C)(C)C)C(=O)C(=O)NC1CC1 (stereo partly drawn) [Compound 216]	> 0.5
CCC[C@H](NC(=O)[C@@H]1C[C@]2(CC(c3ccccc3)=NO2)CN1C(=O)[C@@H](NC(=O)[C@@H](NC(=O)c1cnccn1)C1CCCCC1)C(C)(C)C)C(=O)C(=O)NC1CC1 [Compound 281]	< 0.1
CCC[C@H](NC(=O)[C@@H]1C[C@]2(CC(c3cccc(Cl)c3)=NO2)CN1C(=O)[C@@H](NC(=O)[C@](C)(O)c1ccccc1)C(C)(C)C)C(=O)C(=O)NC1CC1 [Compound 139]	> 0.5
CCC[C@H](NC(=O)[C@@H]1C[C@]2(CC(c3cccc(Cl)c3)=NO2)CN1C(=O)[C@@H](NC(=O)NCc1cccc(F)c1)C(C)(C)C)C(=O)C(=O)NC1CC1 [Compound 122]	0.1 to 0.5
CCC[C@H](NC(=O)[C@@H]1C[C@]2(CC(c3ccccc3)=NO2)CN1C(=O)[C@@H](NC(C)=O)C(C)(C)C)C(=O)C(=O)NC1CC1 [Compound 228]	> 0.5
CCC[C@H](NC(=O)[C@@H]1C[C@]2(CC(c3ccccc3)=NO2)CN1C(=O)[C@@H](NC(=O)O[C@H]1CCOC1)C(C)(C)C)C(=O)C(=O)NC1CC1 [Compound 202]	> 0.5
CCC[C@H](NC(=O)[C@@H]1C[C@]2(CC(c3cc(Cl)c(OC)cc3OC)=NO2)CN1C(=O)OCc1ccccc1Cl)C(=O)C(=O)NC1CC1 [Compound 210]	> 0.5
CCC[C@H](NC(=O)[C@@H]1C[C@]2(CC(c3cc(F)cc(Cl)c3)=NO2)CN1C(=O)[C@@H](NC(=O)CC1CCOCC1)C(C)(C)C)C(=O)C(=O)NC1CC1 [Compound 234]	0.1 to 0.5
CCC[C@H](NC(=O)[C@@H]1C[C@]2(CC(c3cccc(Cl)c3)=NO2)CN1C(=O)[C@@H](NC(=O)OCCc1ccc(F)cc1)C(C)(C)C)C(=O)C(=O)NC1CC1 [Compound 118]	> 0.5
CCC[C@H](NC(=O)[C@@H]1C[C@]2(CC(CCC(=O)OC)=NO2)CN1C(=O)[C@@H](NC(=O)O[C@H]1CCOC1)C(C)(C)C)C(=O)C(=O)NC1CC1 [Compound 229]	> 0.5
CCC[C@H](NC(=O)[C@@H]1C[C@]2(CC(c3ccccc3)=NO2)CN1C(=O)[C@@H](NC(=O)OCc1ccccc1)C(C)(C)C)C(=O)C(=O)NC1CC1 [Compound 520]	> 0.5
CCC[C@H](NC(=O)[C@@H]1C[C@]2(CC(c3cccc(Cl)c3)=NO2)CN1C(=O)[C@@H](NC(=O)OCc1ccccn1)C(C)(C)C)C(=O)C(=O)NC1CC1 [Compound 378]	0.1 to 0.5
CCC[C@H](NC(=O)[C@@H]1C[C@]2(CC(c3ccccc3Oc3ccc(OC)cc3)=NO2)CN1C(=O)[C@@H](NC(=O)OCc1ccccc1)C(C)(C)C)C(=O)C(=O)NC1CC1 [Compound 278]	> 0.5
CCC[C@H](NC(=O)[C@@H]1C[C@]2(CC(c3ccc(F)cc3)=NO2)CN1C(=O)OCC1c2ccccc2-c2ccccc21)C(=O)C(=O)NC1CC1 [Compound 533]	> 0.5
CCC[C@H](NC(=O)[C@@H]1C[C@]2(CC(c3cccc(Cl)c3)=NO2)CN1C(=O)[C@@H](NC(=O)OC(C)Cc1cccs1)C(C)(C)C)C(=O)C(=O)NC1CC1 (stereo partly drawn) [Compound 254]	0.1 to 0.5
CCC[C@H](NC(=O)[C@@H]1C[C@]2(CC(c3ccc(O)cc3)=NO2)CN1C(=O)[C@@H](NC(=O)O[C@H]1CCOC1)C(C)(C)C)C(=O)C(=O)NC1CC1 [Compound 530]	> 0.5
CCC[C@H](NC(=O)[C@@H]1C[C@]2(CC(c3cccc(Cl)c3)=NO2)CN1C(=O)[C@H](Cc1ccccc1)NC(=O)OCC)C(=O)C(=O)NC1CC1 [Compound 427]	> 0.5

Compound	Ki [µM]
CCC[C@H](NC(=O)[C@@H]1C[C@]2(CC(c3cccc(Cl)c3)=NO2)CN1C(=O)[C@@H](NC(=O)N[C@@H](C)c1ccccc1)C(C)(C)C)C(=O)C(=O)NC1CC1 [Compound 333]	0.1 to 0.5
CCC[C@H](NC(=O)[C@@H]1C[C@]2(CC(c3cccc(Cl)c3)=NO2)CN1C(=O)[C@@H](NC(=O)N1CCC2(CC1)CC(=O)c1ccccc12)C(C)(C)C)C(=O)C(=O)NC1CC1 [Compound 291]	> 0.5
CCC[C@H](NC(=O)[C@@H]1C[C@]2(CC(c3cccc(Cl)c3)=NO2)CN1C(=O)[C@@H](NC(=O)CCC(=O)O)C(C)(C)C)C(=O)C(=O)NC1CC1 [Compound 484]	0.1 to 0.5
CCC[C@H](NC(=O)[C@@H]1C[C@]2(CC(c3cccc(Cl)c3)=NO2)CN1C(=O)[C@@H](NC(=O)OCC1CCOC1)C(C)(C)C)C(=O)C(=O)NC1CC1 (stereo partly drawn) [Compound 152]	0.1 to 0.5
CCC[C@H](NC(=O)[C@@H]1C[C@]2(CC(c3ccc(Cl)cc3)=NO2)CN1C(=O)[C@@H](NC(=O)CC1CCCCC1)C(C)(C)C)C(=O)C(=O)NC1CC1 [Compound 55]	0.1 to 0.5
CCC[C@H](NC(=O)[C@@H]1C[C@]2(CC(c3ccc(F)c(Cl)c3)=NO2)CN1C(=O)[C@@H](NC(=O)CC1CCOCC1)C(C)(C)C)C(=O)C(=O)NC1CC1 [Compound 270]	0.1 to 0.5
CCC[C@H](NC(=O)[C@@H]1C[C@]2(CC(c3ccc(OC)cc3OC)=NO2)CN1C(=O)[C@@H](NC(=O)CC1CCCCC1)C(C)(C)C)C(=O)C(=O)NC1CC1 [Compound 166]	0.1 to 0.5
CCC[C@H](NC(=O)[C@@H]1C[C@]2(CC(c3cccc(Cl)c3)=NO2)CN1C(=O)[C@@H](NC(=O)CC1CCCC1)C(C)(C)C)C(=O)C(=O)NC1CC1 [Compound 72]	0.1 to 0.5
CCC[C@H](NC(=O)[C@@H]1C[C@]2(CC(c3cccc(Cl)c3)=NO2)CN1C(=O)[C@@H](NC(=O)C(C)N1Cc2ccccc2C1=O)C(C)(C)C)C(=O)C(=O)NC1CC1 (stereo partly drawn) [Compound 317]	> 0.5
CCC[C@H](NC(=O)[C@@H]1C[C@]2(CC(c3cccc(Cl)c3)=NO2)CN1C(=O)[C@@H](NC(=O)OCc1cc(F)cc(F)c1)C(C)(C)C)C(=O)C(=O)NC1CC1 [Compound 203]	0.1 to 0.5
CCC[C@H](NC(=O)[C@@H]1C[C@]2(CC(c3cccc(Cl)c3)=NO2)CN1C(=O)[C@@H](NC(=O)CCC1NC(=O)NC1=O)C(C)(C)C)C(=O)C(=O)NC1CC1 (stereo partly drawn) [Compound 505]	0.1 to 0.5
CCC[C@H](NC(=O)[C@@H]1C[C@]2(CC(c3cccc(-c4ccncc4)c3)=NO2)CN1C(=O)[C@@H](NC(=O)O[C@H]1CCOC1)C(C)(C)C)C(=O)C(=O)NC1CC1 [Compound 425]	> 0.5
CCC[C@H](NC(=O)[C@@H]1C[C@]2(CC(c3cccc(Cl)c3)=NO2)CN1C(=O)[C@@H](NC(=O)CC1CCCCC1)C(C)(C)C)C(=O)C(N)=O [Compound 273]	0.1 to 0.5
CCC[C@H](NC(=O)[C@@H]1C[C@]2(CC(c3cc(Cl)c(OC)cc3OC)=NO2)CN1C(=O)NCc1ccccc1)C(=O)C(=O)NC1CC1 [Compound 313]	> 0.5
CCC[C@H](NC(=O)[C@@H]1C[C@]2(CC(C(=O)NCC)=NO2)CN1C(=O)[C@@H](NC(=O)O[C@H]1CCOC1)C(C)(C)C)C(=O)C(=O)NC1CC1 [Compound 146]	> 0.5
CCC[C@H](NC(=O)[C@@H]1C[C@]2(CC(c3ccc(OC(F)(F)F)cc3)=NO2)CN1C(=O)O[C@H]1CCOC1)C(=O)C(=O)NC1CC1 [Compound 524]	> 0.5
CCC[C@H](NC(=O)[C@@H]1C[C@]2(CC(c3cccc(Cl)c3)=NO2)CN1C(=O)[C@@H](NC(=O)OCC1CCCCO1)C(C)(C)C)C(=O)C(=O)NC1CC1 (stereo partly drawn) [Compound 308]	0.1 to 0.5
CCC[C@H](NC(=O)[C@@H]1C[C@]2(CC(c3ccc(OC)cc3OC)=NO2)CN1C(=O)[C@@H](NC(=O)O[C@H]1CCOC1)C(C)(C)C)C(=O)C(=O)NC1CC1 [Compound 516]	> 0.5
CCC[C@H](NC(=O)[C@@H]1C[C@]2(CC(c3cccc(Cl)c3)=NO2)CN1C(=O)[C@@H](NC(=O)Cc1ccc(C)c(F)c1)C(C)(C)C)C(=O)C(=O)NC1CC1 [Compound 102]	0.1 to 0.5
CCC[C@H](NC(=O)[C@@H]1C[C@]2(CC(c3ccc4c(c3)OCO4)=NO2)CN1C(=O)c1ccc[nH]1)C(=O)C(=O)NC1CC1 [Compound 464]	> 0.5
CCC[C@H](NC(=O)[C@@H]1C[C@]2(CC(Cc3ccccc3)=NO2)CN1C(=O)[C@@H](NC(=O)O[C@H]1CCOC1)C(C)(C)C)C(=O)C(=O)NC1CC1 [Compound 251]	> 0.5
CCC[C@H](NC(=O)[C@@H]1C[C@]2(CC(c3cc(F)cc(F)c3)=NO2)CN1C(=O)[C@@H](NC(=O)O[C@H]1CCOC1)C(C)(C)C)C(=O)C(=O)NC1CC1 [Compound 106]	> 0.5
CCC[C@H](NC(=O)[C@@H]1C[C@]2(CC(c3ccccc3)=NO2)CN1C(=O)[C@@H](NC(=O)NCc1ccccc1)C(C)(C)C)C(=O)C(=O)NC1CC1 [Compound 107]	0.1 to 0.5
C=C[C@@H]1C[C@]1(NC(=O)[C@@H]1C[C@]2(CC(c3cccc(Cl)c3)=NO2)CN1C(=O)[C@@H](NC(=O)CC1CCCCC1)C(C)(C)C)C(=O)O [Compound 144]	> 0.5
